Laboratory results from US20080161232A1, “C5a Receptor Antagonist” (JERINI AG, priority 2005, published 2008).
Non-standard residues stand in square brackets, D forms with d. Residues, ends and D or L forms follow the SMILES beside them. ξ: configuration not given here. Phe(3-NO2) = N[C@@H](Cc1cccc([N+](=O)[O-])c1)C(=O)O; Phe(3,4-Cl2) = N[C@@H](Cc1ccc(Cl)c(Cl)c1)C(=O)O; Phe(2,4-Cl2) = N[C@@H](Cc1ccc(Cl)cc1Cl)C(=O)O; Phe(3,4-F2) = N[C@@H](Cc1ccc(F)c(F)c1)C(=O)O; ξTrp(5-Me) = Cc1ccc2[nH]cc(CC(N)C(=O)O)c2c1; Phe(3-Cl) = N[C@@H](Cc1cccc(Cl)c1)C(=O)O; Phe(4-F) = N[C@@H](Cc1ccc(F)cc1)C(=O)O; 2Nal = N[C@@H](Cc1ccc2ccccc2c1)C(=O)O; Bta = N[C@@H](Cc1csc2ccccc12)C(=O)O; d(hLeu) = CC(C)CC[C@@H](N)C(=O)O; Cha = N[C@@H](CC1CCCCC1)C(=O)O; Orn = NCCC[C@H](N)C(=O)O

What follows are molecules tested against T1, human C5aR(CD88) (Homo sapiens, UniProt P21730) (assay: Determination of the IC50 value in an enzyme release assay (functional assay, antagonistic activity)). Conditions: antagonistic activity; IC50 group in enzyme release assay, RBL cells expressing human C5aR(CD88); read-out: activity (group).
T1 construct: expressed in transfected cells; host or cells: rat basophilic leukemia cells (RBL)
T1 sequence (P21730 1-350): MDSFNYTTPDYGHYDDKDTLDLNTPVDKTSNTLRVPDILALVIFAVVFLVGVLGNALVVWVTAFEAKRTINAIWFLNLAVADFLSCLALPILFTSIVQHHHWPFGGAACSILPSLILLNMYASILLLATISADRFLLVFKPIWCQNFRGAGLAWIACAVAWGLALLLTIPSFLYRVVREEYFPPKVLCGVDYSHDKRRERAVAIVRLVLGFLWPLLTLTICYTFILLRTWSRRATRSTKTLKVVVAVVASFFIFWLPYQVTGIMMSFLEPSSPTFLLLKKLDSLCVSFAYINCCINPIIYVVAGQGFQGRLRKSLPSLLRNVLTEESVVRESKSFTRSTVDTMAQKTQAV
Format: cell-based
Molecule `CC(=O)N[C@@H](Cc1ccccc1)C(=O)N[C@@H](CCCN)C(=O)N1CCC[C@H]1C(=O)N[C@H](CCC(C)C)C(=O)N[C@@H](Cc1csc2ccccc12)C(=O)N[C@@H](Cc1ccc(F)cc1)C(N)=O` [Compound 279, Ac-Phe-Orn-Pro-hle-Bta-Pff-NH2] (Ac-F[Orn]P[d(hLeu)][Bta][Phe(4-F)]-NH2) has an IC50 of 50 to 200 nM.
`CC(=O)N[C@@H](Cc1ccccc1)C(=O)N[C@@H](CCCN)C(=O)N1CCC[C@H]1C(=O)N[C@H](CCC(C)C)C(=O)N[C@@H](Cc1csc2ccccc12)C(=O)N[C@@H](Cc1ccccc1)C(N)=O` [Compound 280, Ac-Phe-Orn-Pro-hle-Bta-Phe-NH2] (Ac-F[Orn]P[d(hLeu)][Bta]F-NH2) was tested, and the IC50 was 20 to 50 nM.
`CC(=O)N[C@@H](Cc1ccccc1)C(=O)N[C@@H](CCCN)C(=O)N1CCC[C@H]1C(=O)N[C@H](CCC(C)C)C(=O)N[C@@H](Cc1csc2ccccc12)C(=O)N[C@H](Cc1ccccc1)C(=O)O` [Compound 281, Ac-Phe-Orn-Pro-hle-Bta-phe-OH] (Ac-F[Orn]P[d(hLeu)][Bta][dF]-OH) gave an IC50 of 50 to 200 nM.
In the case of `CC(=O)N[C@@H](Cc1ccccc1)C(=O)N[C@@H](CCCN)C(=O)N1CCC[C@H]1C(=O)N[C@H](CCC(C)C)C(=O)N[C@@H](Cc1csc2ccccc12)C(=O)N[C@@H](Cc1ccc(O)cc1)C(N)=O` [Compound 282, Ac-Phe-Orn-Pro-hle-Bta-Tyr-NH2] (Ac-F[Orn]P[d(hLeu)][Bta]Y-NH2), the IC50 is reported as 50 to 200 nM.
`CC(=O)N[C@@H](Cc1ccccc1)C(=O)N[C@@H](CCCN)C(=O)N1CCC[C@H]1C(=O)N[C@H](CCC(C)C)C(=O)N[C@@H](Cc1ccc(F)c(F)c1)C(=O)N[C@@H](Cc1ccccc1)C(N)=O` [Compound 283, Ac-Phe-Orn-Pro-hle-Dff-Phe-NH2] (Ac-F[Orn]P[d(hLeu)][Phe(3,4-F2)]F-NH2) showed an IC50 of 50 to 200 nM.
With `CC(=O)N[C@@H](Cc1ccccc1)C(=O)N[C@@H](CCCN)C(=O)N1CCC[C@H]1C(=O)N[C@H](CCC(C)C)C(=O)N[C@@H](Cc1ccc(Cl)c(Cl)c1)C(=O)N[C@@H](Cc1ccccc1)C(N)=O` [Compound 284, Ac-Phe-Orn-Pro-hle-Eaa-Phe-NH2] (Ac-F[Orn]P[d(hLeu)][Phe(3,4-Cl2)]F-NH2) the IC50 was 50 to 200 nM.
In the case of `CC(=O)N[C@@H](Cc1ccccc1)C(=O)N[C@@H](CCCN)C(=O)N1CCC[C@H]1C(=O)N[C@H](CCC(C)C)C(=O)NC(Cc1c[nH]c2ccc(C)cc12)C(=O)N[C@@H](Cc1ccccc1)C(N)=O` (stereo partly drawn) [Compound 285, Ac-Phe-Orn-Pro-hle-Egc-Phe-NH2] (Ac-F[Orn]P[d(hLeu)][ξTrp(5-Me)]F-NH2), the IC50 is reported as 50 to 200 nM.
In the case of `CC(=O)N[C@@H](Cc1ccccc1)C(=O)N[C@@H](CCCN)C(=O)N1CCC[C@H]1C(=O)N[C@H](CCC(C)C)C(=O)N[C@@H](Cc1ccc(Cl)cc1Cl)C(=O)N[C@@H](Cc1ccccc1)C(N)=O` [Compound 286, Ac-Phe-Orn-Pro-hle-Egy-Phe-NH2] (Ac-F[Orn]P[d(hLeu)][Phe(2,4-Cl2)]F-NH2), the IC50 is reported as 50 to 200 nM.
With `CC(=O)N[C@@H](Cc1ccccc1)C(=O)N[C@@H](CCCN)C(=O)N1CCC[C@H]1C(=O)N[C@H](CCC(C)C)C(=O)N[C@@H](Cc1cccc([N+](=O)[O-])c1)C(=O)N[C@@H](Cc1ccccc1)C(N)=O` [Compound 287, Ac-Phe-Orn-Pro-hle-Egz-Phe-NH2] (Ac-F[Orn]P[d(hLeu)][Phe(3-NO2)]F-NH2) the IC50 was 50 to 200 nM.
For `CC(=O)N[C@@H](Cc1ccccc1)C(=O)N[C@@H](CCCN)C(=O)N1CCC[C@H]1C(=O)N[C@H](CCC(C)C)C(=O)N[C@@H](Cc1cccc(Cl)c1)C(=O)N[C@@H](Cc1ccc2ccccc2c1)C(N)=O` [Compound 288, Ac-Phe-Orn-Pro-hle-Mcf-2Ni—NH2] (Ac-F[Orn]P[d(hLeu)][Phe(3-Cl)][2Nal]-NH2), the IC50 was 50 to 200 nM.
`CC(=O)N[C@@H](Cc1ccccc1)C(=O)N[C@@H](CCCN)C(=O)N1CCC[C@H]1C(=O)N[C@H](CCC(C)C)C(=O)N[C@@H](Cc1cccc(Cl)c1)C(=O)N[C@@H](CC1CCCCC1)C(N)=O` [Compound 289, Ac-Phe-Orn-Pro-hle-Mcf-Cha-NH2] (Ac-F[Orn]P[d(hLeu)][Phe(3-Cl)][Cha]-NH2) was tested, and the IC50 was 20 to 50 nM.
